The text below walks through data of patent publication US7605168B2 (Plexxikon, Inc., priority 2004, dated 2009).

Each structure is given as a SMILES string. Some results are limits rather than exact numbers.

The target in experiment [1] is T1, PDE4D5: full-length human PDE4D5 isozyme (Homo sapiens, UniProt Q08499).
T1 construct: made in house; host or cells: baculovirus infected insect cells (pFastBacHT)
As to the kind of experiment: PDE4 IC50 determination by Scintillation Proximity Assay (SPA), full-length PDE4D5. The format is biochemical. Conditions: cell lysate, [3H]cAMP SPA. The procedure: (§1) The enzyme was not purified from the cell lysates, so enzyme concentrations were not determined. Enzyme was stored in 50% glycerol at −20°.
(§2) IC50s were determined by Scintillation Proximity Assay (SPA). The principle of the assay is based on the fact that cAMP, the PDE4 substrate, binds weakly to Yittrium Silicate SPA beads, whereas AMP, the product of PDE4 hydrolysis binds strongly. Thus, the extent of PDE4 hydrolysis of a sample of [^3H]cAMP can be measured because only the [^3H]AMP produced by PDE4 hydrolysis will bind to the SPA beads and produce a scintillation signal.
(§3) In addition to the compound dilutions, each assay plate contained control wells with 1 μl of DMSO (to define 0% enzyme inhibition) or 1 μl of 200 μM roflumilast (to define 100% enzyme inhibition). Using a Beckman FX robot, 10 μl of [^3H] cAMP (Amersham TRK559) at […] in assay buffer (50 mM Tris, pH 7.5; 8.3 mM MgCl; 1.7 mM EGTA; 0.01% BSA) was transferred to each assay well. Next, 10 μl of PDE4 enzyme in assay buffer was added and the plates were shaken for 30 s. at 1000 rpm to start the cAMP hydrolysis reaction. The concentrations of enzyme used were: PDE4B, 80 ng/ml; PDE4D, 4 ng/ml; PDE4B2, 2.5 μl of 50% glycerol stock/ml; PDE4D5 0.083 μl of 50% glycerol stock/ml. Assay plates were covered and incubated for 30 min. at 30° C. Reactions were stopped by robotic addition of 10 μl of 5 mg/ml SPA beads (Amersham RPNQ0013) in 18 mM ZnSO4. The assay plates were covered with clear plastic film, centrifuged for 1 min. at 1000 RPM to settle the SPA beads, and counted using a Wallac TriLux scintillation counter. IC50's were calculated from the raw assay data by non-linear regression curve fitting using the Assay Explorer software package from MDL.
(In general: In a scintillation proximity assay essentially only radioactivity close to the scintillant gives light.)

The test system of experiment [2] is TNF-α release from whole blood cultures stimulated with LPS. As to the kind of experiment: IC50 by TNF alpha production upon stimulation of whole blood cultures with LPS. The format is cell-based. Conditions: human whole blood (buffy coat) culture, 100 ng/ml LPS, 4 hours; read-out: h TNFα IC50. The procedure:
Compounds were assayed to generate IC50 numbers based on the inhibition of TNF-α release from whole blood cultures, using the following assay protocol (see Table 5 for compounds tested and results). Inhibition of PDE4B results in the inhibition of TNF-α release by whole blood cultures stimulated with lipopolysaccharide (LPS). The measurement of TNF-α release was used to assess compounds as PDE4B inhibitors.
Compounds were provided in DMSO at 20 mM and 2 μl per well was added to one row of a dilution plate. Added 98 μl of RPMI 1640 media with 2.5% heat inactivated FBS to each well containing compound. The same media with 2% DMSO was prepared and 60 μl was added to each of the empty wells in the dilution plate. The compound was serially diluted 1:3 (30 μl to 60 μl of media) for a total of 8 concentrations per compound. Wells were also prepared with 50 μM roflumilast and piclamilast as 100% inhibition controls, and 2% DMSO in media was used as 0% inhibition control. A 20 μl aliquot of each sample was transferred to an assay plate in duplicate.
Human buffy coat was obtained from the Stanford Medical School Blood Center and diluted with 7 volumes of RPMI 1640 media with 1% penicillin/streptomycin and 2.5% heat inactivated FBS. A 160 μl aliquot of the diluted blood was added to each well of the assay plates, mixed and incubated for 1 hour at 37° C. in 5% CO2. LPS (Sigma catalog number L2637) that had been diluted to 1 mg/ml in PBS and stored as 20 μl aliquots at −20° C. was thawed and diluted 1000× to 1 μg/ml. A 20 μl aliquot of this was added to each sample (final concentration 100 ng/ml LPS) after the 1 hour incubation. A background sample was prepared without addition of LPS as well. The samples were mixed on a shaker for one minute at 900 RPM and incubated for 4 hours at 37° C. in 5% CO2. The plates were then put on a shaker for one minute at 900 RPM, followed by centrifuging at 100×g for 10 minutes, deceleration setting of 5. The top 75 μl of supernatant was carefully pipetted to a new plate and frozen at −20° C.
A 50 μl aliquot of incubation buffer (Biosource International Immunoassay Kit:Human TNF-α catalog number KHC3011) was added to each well of a plate coated with monoclonal antibody specific for hTNF-α (Biosource kit). The supernatant blood samples were thawed and a 50 μl aliquot along with 50 μl of diluent buffer (Biosource kit) were added to incubation buffer and the samples were incubated for 2 hours at room temperature. The samples were washed 4 times with 300 μl/well wash buffer (Biosource kit). A 100 μl aliquot of biotinylated anti-TNFalpha (Biosource kit) was added and the samples incubated for 1 hour at room temperature. The samples were washed 4 times with 300 μl/well wash buffer. A 100 μl aliquot of Streptavidin-HRP solution (BioSource kit) was added and the samples incubated for 30 minutes at room temperature. The samples were washed 4 times with 300 μl/well wash buffer. A 100 μl aliquot of Chromagen (Biosource kit) was added and the samples incubated in the dark for 30 minutes. A 100 μl aliquot of stop solution (2N H2SO4) was added to each sample and samples were read at 450 nm on a WallacVictor for 0.1 sec/well.

In experiment [3] the target is T2, PDE4B2: full-length human PDE4B2 isozyme (Homo sapiens, UniProt Q07343).
T2 construct: made in house; host or cells: baculovirus infected insect cells (pFastBacHT)
T2 sequence (Q07343 with tags, fused parts or gaps isoform Q07343-2): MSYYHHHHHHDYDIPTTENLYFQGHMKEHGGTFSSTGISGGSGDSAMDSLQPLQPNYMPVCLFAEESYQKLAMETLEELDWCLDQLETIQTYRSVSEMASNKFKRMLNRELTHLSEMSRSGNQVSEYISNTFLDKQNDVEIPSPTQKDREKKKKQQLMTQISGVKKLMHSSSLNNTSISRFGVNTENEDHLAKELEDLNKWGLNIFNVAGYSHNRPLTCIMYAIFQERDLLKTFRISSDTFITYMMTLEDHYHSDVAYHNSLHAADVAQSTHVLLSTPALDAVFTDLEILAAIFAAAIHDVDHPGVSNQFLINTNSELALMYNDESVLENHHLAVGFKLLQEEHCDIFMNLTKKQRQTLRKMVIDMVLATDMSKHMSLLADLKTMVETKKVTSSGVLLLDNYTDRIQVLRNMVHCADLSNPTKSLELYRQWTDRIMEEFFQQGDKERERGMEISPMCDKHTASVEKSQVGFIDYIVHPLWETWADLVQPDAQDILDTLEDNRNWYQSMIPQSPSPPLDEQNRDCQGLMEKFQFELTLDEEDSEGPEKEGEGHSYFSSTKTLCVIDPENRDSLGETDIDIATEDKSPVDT
As to the kind of experiment: PDE4 IC50 determination by Scintillation Proximity Assay (SPA), full-length PDE4B2. The experiment is classed as biochemical. The conditions noted are these: cell lysate, [3H]cAMP SPA. The procedure: as §1, §2, §3

Experiment [4] deals with T3, PDE4B: catalytic domain of human PDE4B from S152-S528 (Homo sapiens, UniProt Q07343).
T3 construct: The catalytic domain of human PDE4B from S152-S528; His6 (N, cleaved yes); thrombin cleavage site (N, cleaved yes); made in house; host or cells: E. coli BL21 (DE3) RIL
T3 sequence (Q07343 324-700): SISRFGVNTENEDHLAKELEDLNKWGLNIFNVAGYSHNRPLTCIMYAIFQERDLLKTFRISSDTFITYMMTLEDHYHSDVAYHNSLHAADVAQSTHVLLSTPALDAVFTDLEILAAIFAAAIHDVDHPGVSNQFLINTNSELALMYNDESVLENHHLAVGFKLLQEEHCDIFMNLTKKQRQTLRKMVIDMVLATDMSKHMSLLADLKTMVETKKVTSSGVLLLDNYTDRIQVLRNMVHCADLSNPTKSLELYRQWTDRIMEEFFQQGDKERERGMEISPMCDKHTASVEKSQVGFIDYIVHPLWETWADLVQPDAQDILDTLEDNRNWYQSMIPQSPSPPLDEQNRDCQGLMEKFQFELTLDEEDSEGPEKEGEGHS
In words: PDE4 IC50 determination by Scintillation Proximity Assay (SPA), PDE4B catalytic domain. The conditions noted are these: [3H]cAMP SPA, 30 min at 30° C. The experiment is classed as biochemical. The procedure:
as §2
Enzyme was stored in 50% glycerol at −20°.
as §3

T1 sequence (Q08499 with tags, fused parts or gaps isoform Q08499-6): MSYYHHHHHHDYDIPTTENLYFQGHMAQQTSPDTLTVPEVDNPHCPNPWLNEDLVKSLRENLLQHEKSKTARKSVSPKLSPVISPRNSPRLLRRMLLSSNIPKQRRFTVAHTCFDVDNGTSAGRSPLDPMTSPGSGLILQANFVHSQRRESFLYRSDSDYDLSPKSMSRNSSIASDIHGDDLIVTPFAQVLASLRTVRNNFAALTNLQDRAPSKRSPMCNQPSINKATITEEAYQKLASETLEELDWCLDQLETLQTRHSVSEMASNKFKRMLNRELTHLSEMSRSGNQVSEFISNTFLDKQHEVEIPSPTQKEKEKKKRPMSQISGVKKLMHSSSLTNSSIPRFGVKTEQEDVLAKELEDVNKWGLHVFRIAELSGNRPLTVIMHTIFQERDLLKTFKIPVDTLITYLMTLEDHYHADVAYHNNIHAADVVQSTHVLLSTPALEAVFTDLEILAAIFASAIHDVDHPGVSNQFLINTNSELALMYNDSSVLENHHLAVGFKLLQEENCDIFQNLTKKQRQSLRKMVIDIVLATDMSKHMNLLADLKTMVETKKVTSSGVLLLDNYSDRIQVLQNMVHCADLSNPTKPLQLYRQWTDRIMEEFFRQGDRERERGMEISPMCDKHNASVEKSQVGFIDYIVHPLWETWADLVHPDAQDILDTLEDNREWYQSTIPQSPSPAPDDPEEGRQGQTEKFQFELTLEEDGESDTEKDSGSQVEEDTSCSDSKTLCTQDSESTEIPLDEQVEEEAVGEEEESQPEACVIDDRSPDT

As a reminder, the IC50 is the concentration needed to halve the response being measured. `COC(=O)c1cccc(C#Cc2c[nH]c3ncc(-c4ccc(OC)c(OC)c4)cc23)c1` [Compound 139, 3-[5-(3,4-Dimethoxy-phenyl)-1H-pyrrolo[2,3-b]pyridin-3-ylethynyl]-benzoic acid methyl ester]: the IC50 in experiment [1] is less than 10 µM; in experiment [2] it was greater than 10 µM; in experiment [3], less than 10 µM.

As for `COc1ccc(-c2ccc3[nH]ccc3c2)cc1OC` [Compound 129, 5-(3,4-Dimethoxy-phenyl)-1H-indole], the IC50 in experiment [1] was less than 10 µM; in experiment [2] it was no more than 10 µM; in experiment [3], less than 10 µM.

As for `COc1ccc(-c2cnc3c(ccn3S(=O)(=O)c3ccccc3)c2)cc1OC` [Compound 132, 1-Benzenesulfonyl-5-(3,4-dimethoxy-phenyl)-1H-pyrrolo[2,3-b]pyridine], the figures for the IC50 in experiment [1], in experiment [2] and in experiment [3] were less than 10 µM, no more than 10 µM and less than 10 µM, respectively.

`COc1ccc(-c2ccc3c(ccn3S(=O)(=O)c3cccc4cccnc34)c2)cc1OC` [Compound 130, 8-[5-(3,4-Dimethoxy-phenyl)-indole-1-sulfonyl]-quinoline]: the IC50 in experiment [1] was less than 10 µM; in experiment [2], no more than 10 µM; in experiment [3], less than 10 µM.

Turning to `COc1ccc(-c2cccc3c2ccn3S(=O)(=O)c2cccc3cccnc23)cc1OC` [Compound 131, 8-[4-(3,4-Dimethoxy-phenyl)-indole-1-sulfonyl]-quinoline], the IC50 was less than 10 µM in experiment [1], no more than 10 µM in experiment [2] and less than 10 µM in experiment [3].

For `CCOc1ccc2ccccc2c1C(=O)n1cc(-c2ccc(OC)c(OC3CCCC3)c2)c2cccnc21` [Compound 119, [3-(3-Cyclopentyloxy-4-methoxy-phenyl)-pyrrolo[2,3-b]pyridin-1-yl]-(2-ethoxy-naphthalen-1-yl)-methanone], the IC50 in experiment [1] is less than 10 µM; in experiment [2], no more than 10 µM; in experiment [3], less than 10 µM.

For `COc1ccc(-c2cnc3[nH]cc(C#Cc4ccccc4)c3c2)cc1OC` [Compound 138, 5-(3,4-Dimethoxy-phenyl)-3-phenylethynyl-1H-pyrrolo[2,3-b]pyridine], the IC50 in experiment [1] is less than 10 µM; in experiment [2], no more than 10 µM; in experiment [3], less than 10 µM.

Take `COc1ccc(-c2cn(S(=O)(=O)c3cccc4cccnc34)c3ccc(Cl)cc23)cc1OC` [Compound 93, 8-[3-(3,4-Dimethoxy-phenyl)-5-chloro-indole-1-sulfonyl]-quinoline]: the half-inhibitory concentration (IC50) in experiment [1] is less than 10 µM; in experiment [2], no more than 10 µM; in experiment [3], less than 10 µM.

For the compound `COc1ccc(-c2cn(C(=O)c3ccc(C#N)cc3)c3ncccc23)cc1OC` [Compound 106, 4-[3-(3,4-Dimethoxy-phenyl)-pyrrolo[2,3-b]pyridine-1-carbonyl]-benzonitrile], the IC50 was less than 10 µM in experiment [1], no more than 10 µM in experiment [2] and less than 10 µM in experiment [3].

On to `CCOc1ccc2ccccc2c1C(=O)n1cc(-c2cccc(C(N)=O)c2)c2cccnc21` [Compound 121, 3-[1-(2-Ethoxy-naphthalene-1-carbonyl)-1H-pyrrolo[2,3-b]pyridin-3-yl]-benzamide], for which the values for the IC50 in experiment [1], in experiment [2] and in experiment [3] were less than 10 µM, no more than 10 µM and less than 10 µM, respectively.

As to `CCOc1ccc2ccccc2c1C(=O)n1cc(-c2ccc(S(C)(=O)=O)cc2)c2cccnc21` [Compound 84, (2-Ethoxy-naphthalen-1-yl)-[3-(4-methanesulfonyl-phenyl)-pyrrolo[2,3-b]pyridin-1-yl]-methanone], the IC50 in experiment [1] was less than 10 µM; in experiment [2] it was no more than 10 µM; in experiment [3], less than 10 µM.

As to `COc1ccc(-c2cnc3[nH]cc(C#Cc4cccc(C(=O)O)c4)c3c2)cc1OC` [Compound 140, 3-[5-(3,4-Dimethoxy-phenyl)-1H-pyrrolo[2,3-b]pyridin-3-ylethynyl]-benzoic acid], the IC50 in experiment [1] is less than 10 µM; in experiment [2], greater than 10 µM; in experiment [3] it was less than 10 µM.

In the case of `COc1ccc(-c2cn(C(=O)Nc3cccc(F)c3)c3ncccc23)cc1OC` [Compound 35, 3-(3,4-Dimethoxy-phenyl)-pyrrolo[2,3-b]pyridine-1-carboxylic acid(3-fluoro-phenyl)-amide], the IC50 in experiment [4], in experiment [1] and in experiment [3] was greater than 10 µM each time.

With `COc1ccc2c(c1)c(-c1ccc(OC)c(OC)c1)cn2S(=O)(=O)c1cccc2cccnc12` [Compound 92, 8-[3-(3,4-Dimethoxy-phenyl)-5-methoxy-indole-1-sulfonyl]-quinoline], the IC50 was less than 10 µM in experiment [1], no more than 10 µM in experiment [2] and less than 10 µM in experiment [3].

Turning to `COc1ccc(-c2cn(S(=O)(=O)c3ccc(Oc4ccccc4)cc3)c3ncccc23)cc1OC` [Compound 15, 3-(3,4-Dimethoxy-phenyl)-1-(4-phenoxy-benzenesulfonyl)-1H-pyrrolo[2,3-b]pyridine], the IC50 in experiment [4], in experiment [1] and in experiment [3] was less than 10 µM in each case.

`COc1ccc(-c2cn(S(=O)(=O)c3ccccc3)c3ccccc23)cc1OC1CCCC1` [Compound 99, 1-Benzenesulfonyl-3-(3-cyclopentyloxy-4-methoxy-phenyl)-1H-indole]: the half-inhibitory concentration (IC50) in experiment [4], in experiment [1] and in experiment [3] was less than 10 µM in each case.

On to `COc1ccc(-c2cn(S(=O)(=O)c3ccccc3)c3ccccc23)cc1OC` [Compound 19, 1-benzenesulfonyl-3-(3,4-dimethoxy-phenyl)-1H-indole], for which the IC50 in experiment [4], in experiment [1] and in experiment [3] was less than 10 µM in each case.

In the case of `COc1ccc(NC(=O)n2cc(-c3ccc(OC)c(OC)c3)c3cccnc32)cc1` [Compound 39, 3-(3,4-Dimethoxy-phenyl)-pyrrolo[2,3-b]pyridine-1-carboxylic acid (4-methoxy-phenyl)-amide], the IC50 in experiment [4] is less than 10 µM; in experiment [1], greater than 10 µM; in experiment [3] it was less than 10 µM.

As for `Cc1[nH]c2ncccc2c1-c1ccc2c(c1)OCO2` [Compound 142, 3-Benzo[1,3]dioxol-5-yl-2-methyl-1H-pyrrolo[2,3-b]pyridine], the figures for the IC50 in experiment [4], in experiment [1] and in experiment [3] were less than 10 µM, greater than 10 µM and greater than 10 µM, respectively.
